Test results: publication PMC9252919, “Controlled masking and targeted release of redox-cycling ortho-quinones via a C–C bond-cleaving 1,6-elimination” (Nature Chemistry, 2022)

Experiments:
AML cell line MOLM-13 = assay: Viability assay with small-molecule prodrugs, MOLM-13; type: cell-based; conditions: 5 µM, 24 h
Protocol: (§1) For assays assessing cytotoxicity of β-lapachone versus small-molecule prodrugs, antibodies and ADCs, suspension cells were plated into 24-well plates at a density of 2.5 × 10^5 cells ml^−1 in 240 µl. Stocks of ADC or antibody in PBS were normalized to 12.5 µM. Serial dilutions of compound were made up in PBS. Then, 60 µl of each stock of either PBS or compound in PBS was added to the cells to achieve the desired final concentration. After the specified incubation time, toxicity was assessed by counting of live cells using the trypan blue exclusion method with a Countess II Automated Cell Counter (ThermoFisher Scientific) according to the manufacturer’s instructions. Cell viability was determined by dividing the average live cell number of treated wells by the average live cell number for control wells treated with PBS only. IC50 values were calculated using GraphPad Prism software. Note: for the assay performed over 96 h, 5% human serum was added to media instead of 10% fetal bovine serum, to limit non-specific antibody internalisation. This had little effect on ADC toxicity.

CD33+ HL-60 cells = assay: Viability assay with small-molecule prodrugs and ADCs, HL-60; type: cell-based, human; conditions: Homo sapiens, read-out: IC50 against CD33+ HL-60 cells
Protocol: as §1

HL-60 cells [1] = assay: Lysosomal deacidification and inhibition assay; type: cell-based, human; conditions: HL-60, NH4Cl 30 mM
Protocol: Assays to assess the effect of lysosomal activity on prodrugs were performed as follows: HL-60 cells were plated into 96-well plates at a concentration of 2.5 × 10^5 cells ml^−1 in 180 µl media. Cells were treated with 10 µl of a stock of NH4Cl in PBS (to obtain an in-plate concentration of 3 or 30 mM), 10 µl of a dilution of a DMSO stock of E64d in PBS (to obtain an in-plate concentration of 30 μM), PBS only or a dilution of DMSO in PBS. Cells were incubated for 30 min. Following this, 10 µl of a stock of test compound made by dilution of a DMSO stock into media was added. DMSO was present in-plate at a maximum of 0.2%. Cells were incubated overnight for 16 h. Following incubation, media was replaced with media containing CellTiter-Blue (Promega) in 1:4 dilution and the plates were incubated for 6 h. The fluorescence of the plates was recorded (excitation, 555 nm; emission, 585 nm; MiniMax i3x Reader, Molecular Devices). Cell viability was calculated by division of the fluorescence intensity of treated wells by that of the average fluorescence intensity of the relevant negative control wells.

[2] = Quantitative LC-MS/MS of β-lapachone in xenograft mouse tumour; type: in vivo, NOD-SCID mice; conditions: fixed tumour homogenate of mice treated with ADC Gem-HC-239iC-BL
Protocol: Concentrations of β-lapachone in formalin-fixed tumour and the respective formol supernatant were quantified using reversed-phase ultra-high-performance liquid chromatography tandem mass spectrometry as previously described. Care was taken during sample handling to minimize exposure to light, and amber glass/plastic and foil wrapping were used where possible. Tumour tissue was homogenized to a concentration of 200 mg ml^−1 with PBS. An aliquot of homogenate or formol supernatant sample was transferred to a fresh tube with cryptotanshinone (internal standard) in ethyl acetate for liquid–liquid extraction. Samples were mixed, centrifuged and the ethyl acetate layer transferred to a 96-well plate, evaporated and reconstituted in 0.1% formic acid in acetonitrile:water 70:30. PBS was used as the surrogate matrix for calibration standards and quality-control samples. The calibration ranges were 0.25–250 ng g^−1 (homogenate) and 0.05–50 ng ml^−1 (formol). The analytical batches included quality-control samples at low, medium and high concentrations. The analysis was performed on a Shimadzu Nexera X2 UHPLC coupled to a Sciex TripleTOF 6600 mass spectrometer. The extracted samples were injected onto a Phenomenex Kinetex EVO C18, 1.7 µm, 50 × 2.1 mm analytical column, at 35 °C. […]

HL-60 cells [3] = assay: Cellular ROS detection with 2',7'-dichlorodihydrofluorescein diacetate; type: cell-based, human; conditions: 50 µM, 15 min
Protocol: To determine ROS generation by compounds in leukaemia cells, HL-60 cells were washed with PBS, then incubated in serum-free media (10 ml of 1.6 × 10^6 ml^−1 cell concentration) with 2,7-dichlorofluorescin diacetate at 20 µM for 30 min at 37 °C. Following this, the cells were washed with PBS and resuspended in Fluorbrite–DMEM media (ThermoFisher) (10 ml). Then, 450 µl of the cell mixture was seeded into wells of a clear flat-bottomed 12-well plate, to which 50 µl of a 10× stock of the compounds in media had been already added, to achieve a final compound concentration of 50 µM. The 10× media stocks were made by 100-fold dilution of DMSO compound stocks, to ensure a final in-plate DMSO concentration of 0.1%. DMSO 0.1% only was used as a negative control. […] After plating the cells were immediately incubated at 37 °C in the dark for 15 min before the fluorescence of the wells (excitation, 485 nm; emission, 535 nm) was recorded (MiniMax i3x Imager, Molecular Devices).

[4] = system: range of cancer cell lines, including leukaemia, breast, colon and cervical cancer; assay: Viability assay (CellTiter-Blue) with small-molecule lapachone models; type: cell-based; conditions: 48 h
Protocol: Assays assessing cytotoxicity of β-lapachone and derivatives were performed by CellTiter-Blue assay (Promega) according to the manufacturer’s instructions. Briefly, adherent cancer-cell lines were plated at 20,000 cells per well in 96-well plates or suspension cell lines were plated at a concentration of 2 × 10^5 cells ml^−1 in 24-well plates. Compound stocks in media were made by dilution of DMSO stocks containing the compound of interest to obtain a final in-plate DMSO concentration of only 0.1%. Incubation was performed for 48 h. Following incubation, media was replaced with media containing CellTiter-Blue (Promega) in 1:10 dilution and the plates were incubated for 1.5–4 h. The fluorescence of the plates was recorded (excitation, 555 nm; emission, 585 nm; MiniMax i3x Reader, Molecular Devices). Cell viability was calculated by division of the fluorescence intensity of treated wells by that of the calculated average fluorescence intensity of replicate negative control wells containing cells with 0.1% DMSO only. IC50 values were calculated using GraphPad Prism 8 software.

SMILES | toxicity to MOLM-13 at 5 µM (AML cell line MOLM-13) | IC50 (CD33+ HL-60 cells) [nM] | toxicity with NH4Cl at 30 mM (HL-60 cells [1]) | concentration of 1 in tumour tissue [2] [ng/g] | ROS generation in HL-60 (HL-60 cells [3]) | decrease in toxicity relative to 1 [4] [fold]
CC1(C)CCC2=C(O1)c1ccccc1C(=O)C2=O [Compound 1, β-lapachone, reference compound] | complete cell death | ~1000 | increase in toxicity | 0.327 | – | –
CC1(C)CCC2=C(O1)c1ccccc1C(O)(Cc1ccccc1)C2=O (stereo not drawn) [Compound 24, benzyl β-lapa-ketol] | – | – | – | – | did not generate detectable ROS | > 20
